Values after ≈ are worked out from the molar mass of the structure shown. Values joined by “and” are separate entries in the source; they are usually repeats but may differ in a detail not shown here. Equal entries are not always repeated. Non-standard residues stand in square brackets, D forms with d. Residues, ends and D or L forms follow the SMILES beside them. Dip = N[C@H](C(=O)O)C(c1ccccc1)c1ccccc1
How the values were obtained:
[1] = system: S. aureus (ATCC 29213); test: microbe, parasite or virus in culture; assay type: cell-based, Staphylococcus aureus; settings: ATCC 29213, 24 h
Description: (§1) The antibacterial activity of all ten synthesized linear and cyclic peptides was evaluated against MRSA (ATCC BAA-1556), S. aureus (ATCC 29213), E. faecium (ATCC 700221), S. pneumoniae (ATCC 51938), E. faecalis (ATCC 29212), B. subtilis (ATCC-6633), K. pneumoniae (ATCC BAA-1705), P. aeruginosa (ATCC 27883), and E. coli (ATCC 25922). Meropenem and daptomycin were used as positive controls for this study. Certain peptides are marked as “NT” (not tested) against specific bacterial strains based on initial screening data. […] The MIC was determined by micro-broth dilution protocol, where the minimal concentrations were determined to be in wells with no visible bacterial growth.
(§2) All bacterial experiments were carried out in a laminar flow hood (Labconco, Kansas City, MO, USA). The bacterial strains were cultured following the guidelines set by the Clinical Laboratory Standards Institute (CLSI). Antibacterial assays were performed using a standard microtiter dilution method as described in previous studies. The minimum inhibitory concentration (MIC) refers to the lowest peptide concentration that inhibits bacterial growth in wells with no visible bacterial growth. MIC was determined by micro-broth dilution. Bacteria were cultured overnight in 6 mL of Luria Broth (LB). A stock solution of the peptide was prepared in water and DMSO, and a test compound solution with a concentration of 256 µg/mL was made in LB. Meropenem, with a solubility of 8 mg/mL, was prepared as a stock solution at 4 mg/500 µL. An aliquot of the overnight bacteria culture was diluted in normal saline (NS, 1 mL) until achieving a 0.5 McFarland turbidity (1.5 × 10^8 bacterial cell CFU/mL). A 0.5 McFarland compared solution (60 µL) was added to Mueller Hinton Broth (MH) 8940 µL to generate a 1/150 dilution. A 200 µL test compound solution was added to the first well of a 96-well plate, and the remaining wells (2–12) were filled with 100 µL of MH media using a multi-channel pipette from a sterile reservoir. A concentration of […] of the tested peptides was prepared from a stock solution of the samples for testing in Muller−Hinton broth MH media. Peptides stock solution was dissolved in 5% DMSO in water, and the final concentration of DMSO in the first well of assay plate was 2.5% DMSO/H2O and diluted across the assay plate.
(§3) A 100 µL sample from well 1 was pipetted into well 2, and the solution was mixed thoroughly by pipetting up and down. Next, 100 µL was transferred from well 2 to well 3, followed by thorough mixing. This 2-fold serial dilution process continued through well 11, with no additions made to well 12. The final 100 µL from well 11 was discarded. After completing the serial dilution, each well (1–12) contained 100 µL of solution. The bacterial culture in MH media was vortexed and transferred to a sterile reservoir, from which 100 µL was added to each well using a 12-channel pipette. (Note: The dilutions were further diluted upon adding the bacterial solution; for example, the concentration in well 1 started at […] after the addition of the bacterial culture.) The plates were incubated overnight at 37 °C for 24 h. All experiments were performed in triplicate and repeated twice, with controls consisting of bacteria in MH media and positive controls of daptomycin or meropenem.

[2] = system: E. faecium (ATCC 700221); test: microbe, parasite or virus in culture; assay type: cell-based, Enterococcus faecium; settings: ATCC 700221, 24 h
Description: as §1, §2, §3

[3] = system: S. pneumoniae (ATCC 51938); test: microbe, parasite or virus in culture; assay type: cell-based, Streptococcus pneumoniae; settings: ATCC 51938, 24 h
Description: as §1, §2, §3

[4] = system: E. faecalis (ATCC 29212); test: microbe, parasite or virus in culture; assay type: cell-based, Enterococcus faecalis; settings: ATCC 29212, 24 h
Description: as §1, §2, §3

[5] = system: K. pneumoniae (ATCC BAA-1705); test: microbe, parasite or virus in culture; assay type: cell-based, Klebsiella pneumoniae; settings: ATCC BAA-1705, 24 h
Description: as §1, §2, §3

[6] = system: E. coli (ATCC 25922); test: microbe, parasite or virus in culture; assay type: cell-based, Escherichia coli; settings: ATCC 25922, 24 h
Description: as §1, §2, §3

[7] = system: C. parapsilosis (ATCC 22019); test: microbe, parasite or virus in culture; assay type: cell-based, Candida parapsilosis; settings: ATCC 22019, 24 h
Description: The antifungal activity of all ten synthesized linear and cyclic peptides was evaluated against C. albicans (ATCC 60193), C. parapsilosis (ATCC 22019), and A. fumigatus (AF-293). Fluconazole and amphotericin B were used as positive controls for this study. The MIC was determined at concentrations in wells with no visible fungal growth.
In this study, C. albicans and C. parapsilosis were cultured on Yeast Peptone Dextrose (YPD) agar containing 1% w/v yeast extract, 2% w/v peptone, 2% w/v D-glucose, and 1.5% agar. A single colony from the agar was selected and cultured in Tryptone soy broth supplemented with 0.1% D-glucose, then incubated for 24 h at 37 °C. The cells were washed twice with PBS by centrifugation at 2000 RPM for 5 min. The pellet was resuspended in 5 mL of PBS, diluted in RPMI 1640 with L-glutamine, supplemented with 2% D-glucose, and the pH adjusted using HEPES buffer. The suspension was then incubated for 50 min at 35 °C to achieve a final cell concentration of 10^6 cells/mL.
Peptide concentrations of 50, 25, 12.5, 6.25, and 3.1 μg/mL were tested in triplicate and repeated twice. Each well of a 96-well plate was inoculated with the prepared inoculum suspension, which was diluted with RPMI media to a final volume of 200 μL per well. The control well received the same inoculum without any compound. The plates were incubated for 24 h at 37 °C. Fungal and microbial growth were visually observed in the control wells, and the minimum inhibitory concentration (MIC) was determined as the lowest concentration at which no growth was detected in the wells. Amphotericin B was used as a standard antifungal drug.

[8] = system: Gram-negative strains: K. pneumoniae, P. aeruginosa, and E. coli; test: MIC, micro-broth dilution, span over Gram-negative strains; assay type: cell-based
Description: as §1
(§4) All bacterial experiments were carried out in a laminar flow hood (Labconco, Kansas City, MO, USA). The bacterial strains were cultured following the guidelines set by the Clinical Laboratory Standards Institute (CLSI). Antibacterial assays were performed using a standard microtiter dilution method as described in previous studies. The minimum inhibitory concentration (MIC) refers to the lowest peptide concentration that inhibits bacterial growth in wells with no visible bacterial growth. MIC was determined by micro-broth dilution. Bacteria were cultured overnight in 6 mL of Luria Broth (LB). […]

[9] = system: Gram-positive and Gram-negative bacteria strains; assay type: cell-based; settings: span over all bacterial strains tested; micro-broth dilution
Description: as §1, §4

[10] = system: Gram-positive bacteria strains: MRSA, S. aureus, E. faecium, E. faecalis, S. pneumoniae, and B. subtilis; assay type: cell-based; settings: span over MRSA, micro-broth dilution
Description: as §1, §4

## N=C(N)NCCC[C@@H]1NC(=O)[C@H](C(c2ccccc2)c2ccccc2)NC(=O)[C@H](CCCNC(=N)N)NC(=O)[C@H](C(c2ccccc2)c2ccccc2)NC(=O)[C@H](CCCNC(=N)N)NC(=O)[C@H](C(c2ccccc2)c2ccccc2)NC(=O)[C@H](CCCNC(=N)N)NC(=O)[C@H](C(c2ccccc2)c2ccccc2)NC(=O)[C@H](CCCNC(=N)N)NC(=O)[C@H](C(c2ccccc2)c2ccccc2)NC1=O [[DipR]5] (cyclo([Dip]R[Dip]R[Dip]R[Dip]R[Dip]R))
[1]
  MIC: 3.1 µM (≈ 5.88 µg/mL)
[2]
  MIC: 0.78 µM (≈ 1.48 µg/mL)
[3]
  MIC: 0.39 µM (≈ 0.74 µg/mL)
[4]
  MIC: 0.78 µM (≈ 1.48 µg/mL)
[5]
  MIC: 25 µM (≈ 47.4 µg/mL)
[6]
  MIC: 12.5 µM (≈ 23.7 µg/mL)
[7]
  MIC: 6.6 µM (≈ 12.5 µg/mL)
[8]
  MIC values against Gram-negative strains: 12.5–25 µM and 23.8–47.6 µg/mL
[9]
  MIC values against Gram-positive and Gram-negative bacteria strains: 0.39 to 25 µM
[10]
  MIC values against Gram-positive bacteria strains: 0.39 to 6.3 µM

From PMC11763264, “Antibacterial and Antifungal Activities of Linear and Cyclic Peptides Containing Arginine, Tryptophan, and Diphenylalanine” (Antibiotics, 2025)
